In paper PMC12049818, “Identification of NUV-244 as a PNPLA3 I148M degrading small molecule” (iScience, 2025):
Residue numbers refer to the chain shown, from its start.

What was measured:
PNPLA3-tagRFP = target: T1, PNPLA3-tagRFP (Homo sapiens, UniProt Q9NST1); test: Huh7 PNPLA3-tagRFP (WT) reduction on lipid droplets; assay type: cell-based; settings: representative dose-response curve, Figure 3B
T1 construct: host or cells: Huh7
T1 sequence (Q9NST1 1-481): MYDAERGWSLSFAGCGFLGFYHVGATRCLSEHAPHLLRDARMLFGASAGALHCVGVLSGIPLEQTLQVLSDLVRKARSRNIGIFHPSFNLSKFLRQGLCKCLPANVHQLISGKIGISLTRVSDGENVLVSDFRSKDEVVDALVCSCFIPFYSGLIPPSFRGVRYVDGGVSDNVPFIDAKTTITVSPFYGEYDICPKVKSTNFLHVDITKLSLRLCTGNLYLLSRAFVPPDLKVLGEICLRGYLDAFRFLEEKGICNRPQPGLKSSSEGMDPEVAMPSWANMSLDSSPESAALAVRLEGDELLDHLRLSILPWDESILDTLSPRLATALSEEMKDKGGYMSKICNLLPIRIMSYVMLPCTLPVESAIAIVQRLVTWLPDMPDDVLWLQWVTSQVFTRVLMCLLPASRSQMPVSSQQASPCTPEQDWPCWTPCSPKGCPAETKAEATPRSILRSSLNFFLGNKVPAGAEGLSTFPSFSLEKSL
Experimental: To confirm activity, NUV-244 was resynthesized. […] Next, to evaluate the specificity against PNPLA3 WT, Huh7 cells expressing PNPLA3-tagRFP were generated (Figures 3A and S3A). Like the mutant, PNPLA3-tagRFP localizes to lipid droplets in Huh7 cells and NUV-244 dose-dependently leads to a decrease of PNPLA3-tagRFP with a similar potency as for the mutant (Figure 3B).
For dose-response cells were seeded at 4000 c/30 μl per well in 384 well plates (Revvity, Waltham, MA, USA, PhenoPlate 384-well microplate, #6057308) and stored in a 37°C incubator with 5% CO2 and 95% humidity overnight. Compounds, serially diluted, and DMSO controls were added, and cells were incubated for another 24h. […]
Images were analyzed using Harmony (Revvity) and MetaXpress software (Molecular Devices, USA) to quantify lipid droplet morphology and PNPLA3 I148M-tagRFP intensity.
Assay plates were evaluated based on Z’ scores (>0.6) and signal-to-background ratio (>12) using Genedata Screener® for HTS and Condoseo modules (Genedata, Switzerland). […] Automated image analysis routines were set up to quantify the number, morphology and intensity of nuclei, lipid droplets and the intensity of PNPLA3 I148M-tagRFP on lipid droplets. […]

PNPLA3 I148M = target: T2, PNPLA3 I148M (Homo sapiens, UniProt Q9NST1, I148M); test: nanoDSF thermal shift, PNPLA3 I148M protein; assay type: binding; settings: ligand 25 μM
T2 sequence (Q9NST1 1-481 I148M): T1 sequence (Q9NST1 1-481) with I148M
Source text: To investigate the mode of action of NUV-244, we evaluated its direct binding to the PNPLA3 I148M protein using nano differential scanning fluorimetry (nanoDSF). In this assay, compounds that bind to a target protein can lead to thermal stabilization, preventing protein denaturation, which is reflected in a shift of the protein melting curve.
Full-length wild-type PNPLA3 (Q9NST1), mutant PNPLA3 (I148M), and PNPLA2 (Q96AD5) were cloned into the pVL1393 vector with an N-terminal Flag-Tag. Proteins were expressed in SF9 cells infected at a multiplicity of infection (MOI) of 1 for 72 hours. Protein purification was performed using a two-step process. The first step involved affinity purification using M2 anti-Flag agarose beads. This was followed by gel filtration chromatography using a Superdex 200 column. Thermal melting experiments were carried out using a Prometheus NT.48 instrument (NanoTemper Technologies). Proteins were prepared in 20 mM Tris-HCl pH 7.4, 100 mM NaCl, 5 % Glycerol, 2 mM DTT and 0.2 mg/mL was used as a final concentration in 50 μL volume. For binding experiments, ligands were added to the mixture at a final concentration of 25 μM, DMSO was used as control. […] The intrinsic protein fluorescence at 330 and 350 nm was recorded. Data were analysed using Prometheus NT.48 software. Thermal shifts (ΔTm) were calculated, and Z-scores greater than 6 indicated robust stabilization. […]

LX-2 cells = test: Incucyte growth curves, LX-2; assay type: cell-based, human; settings: 1μM or 5μM; compared to DMSO
Experimental: Huh7, Huh7 PNPLA3 I148M, Huh7 PNPLA3, Hep3b and LX-2 cells were seeded at a concentration of 1000 cells/well in 60 μl of growth medium on 384-well microtiter plates (Revvity, Waltham, MA, USA, PhenoPlate 384-well microplate, #6057308) and stored in a 37°C incubator with 5% CO2 and 95% humidity overnight. Next day cells were treated with DMSO as control (1% final concentration) or compound (1μM or 5μM final concentration) and cell density was recorded in the Incucyte® life cell imager (Sartorius, Göttingen, Germany) every 4 hours over a period of 5 days. Growth curves were generated by monitoring confluence over time. Proliferative capacity of PNPLA3 I148M-expressing cells was compared to control cells, and the restoration of proliferative fitness was analyzed.

EC50 (PNPLA3-tagRFP): 213 nM | ΔTm PNPLA3 I148M (PNPLA3 I148M): 5.82 °C
Compound: Cc1cccc(Cc2nc(C)c(C(=O)Nc3cc(O)ccc3Cl)s2)c1 [NUV-244]
effect on proliferative capacity, LX-2 (LX-2 cells): no effects
